Laboratory results reported in patent US20250129021A1, “SMALL MOLECULE PROTEIN SYNTHESIS MODULATORS” (Interdict Bio, Inc., priority 2023, published 2025).

How the values were obtained:
Assay type in all cases: biochemical
MYC = assay: In vitro transcription-translation (IVTT) assay, MYC reporter; details: IVTT assay, HeLa S3 lysate, MYC reporter, normalized sfGFP/mCherry ratio; half-log dilutions 30 μM-0.1 μM, 2 hrs at 30° C.
Method in brief: (§1)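 Reporter: mCherry, P2A, then 3×FLAG-target peptide-sfGFP fusion, IRES-initiated; HeLa S3 lysate IVTT; cpd dilutions 30 μM−0.1 μM half-log in 100% DMSO (dilution-plate conc); DNA added last; 2 h, 30° C; PBS quench.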

CCND1 = assay: In vitro transcription-translation (IVTT) assay, CCND1 reporter; details: IVTT assay, HeLa S3 lysate, sfGFP/mCherry ratio
Method in brief: as §1

NFKB1 = assay: In vitro transcription-translation (IVTT) assay, NFKB1 reporter; details: HeLa S3 lysate, sfGFP/mCherry ratio
Method: In vitro transcription-translation assay setup: Each assay includes a master mix containing lysate and shared components, a 96-well plate containing compound titrations for testing, a 96-well DNA plate with reporter constructs to be tested, 96-well skirted PCR plates, and 96-well flat-bottom, black, fluorescent assay plates. Reaction materials setup: (A) Master mix—15 mL conical tube (3 mL of HeLa S3 Lysate described above; 0.6 mL of ThermoFisher Accessory Proteins (#88882); 1.2 ml of ThermoFisher Reaction Mix (#88882); 0.54 mL of nuclease-free Water); (B) 96-Well Master Mix+Compound Plate (Half-log dilutions (30 μM−0.1 μM) of 4 compounds of interest are prepared in 100% DMSO); 96-Well DNA Plate (Five DNA constructs are plated into single columns within the plate. Row 1 of the column contains nuclease free H2O, all other wells contain 110 ng/μL plasmid DNA). Reactions are started by mixing 155 μL of master mix and 3.5 μL of compound serial dilutions, then 9.1 μL of master mix+compound mixture is aliquoted across 5 96-well plates. Reactions begin with final addition of 2 μL of DNA for a 11.1 μL reaction volume in each well. The entire plate is sealed, and incubated for 2 hrs at 30° C. After 2 hrs, quench the assay using 45 μL of PBS, and transfer 50 μL to a flat-bottom black microplate Quantify the sfGFP and mCherry signals from each well on each plate, taking 3 reads of each plate, and perform data analysis below.
In vitro transcription-translation assay data analysis: Each plate is read three times in channels for both sfGFP and mCherry signals. The average signal across these 3 reads is then calculated for further analysis. Control wells containing no DNA reporter are subtracted from reporter wells in the same column to remove auto-fluorescence of the lysate. Then, the ratio of sfGFP/mCherry is calculated per well, and these ratios are averaged across the triplicate experiments on the same plate. Finally, the ratio of each titration concentration is normalized to the no drug control to create the normalized stalling metric. The error on this measurement is determined by propagating error through the averaging and normalization steps. Values are plotted and fit for IC50 determination for each test sequence and titration of compound.

Measured: IC50

O=C(NCC[C@@H]1CCCN1)O[C@@H]1[C@@H](O)CN[C@@H]1Cc1ccc(-c2ccns2)cc1 [V192331, (2R,3S,4S)-4-hydroxy-2-{[4-(1,2-thiazol-5-yl)phenyl]methyl}pyrrolidin-3-yl N-{2-[(2S)-pyrrolidin-2-yl]ethyl}carbamate]
< 10 µM: all assays above

(3S,4S,5R)-4-({[(3-fluorophenyl)methyl]carbamoyl}oxy)-5-{[4-(1,3-oxazol-5-yl)phenyl]methyl}pyrrolidin-3-yl acetate [V192392]
< 10 µM: all assays above

O=C(NCc1cncc(N2CCC2)c1)O[C@@H]1[C@@H](O)CN[C@@H]1Cc1ccc(-c2cnco2)cc1 [V192286, (2R,3S,4S)-4-hydroxy-2-{[4-(1,3-oxazol-5-yl)phenyl]methyl}pyrrolidin-3-yl N-{[5-(azetidin-1-yl)pyridin-3-yl]methyl}carbamate]
< 10 µM: all assays above

O=C(NCC[C@@H]1CCNCC1(F)F)O[C@@H]1[C@@H](O)CN[C@@H]1Cc1ccc(-c2cnco2)cc1 [V192234, (2R,3S,4S)-4-hydroxy-2-{[4-(1,3-oxazol-5-yl)phenyl]methyl}pyrrolidin-3-yl N-{2-[(4S)-3,3-difluoropiperidin-4-yl]ethyl}carbamate]
< 10 µM: all assays above

O=C(NCc1cccc(F)c1)O[C@@H]1[C@@H](O)CN[C@@H]1Cc1ccc(-c2ccc3nonc3c2)cc1 [V192385, (2R,3S,4S)-2-{[4-(2,1,3-benzoxadiazol-5-yl)phenyl]methyl}-4-hydroxypyrrolidin-3-yl N-[(3-fluorophenyl)methyl]carbamate]
< 10 µM: all assays above

(2R,3S,4S)-2-{[2-fluoro-4-(1,3-oxazol-5-yl)phenyl]methyl}-4-hydroxypyrrolidin-3-ylN-[(3-fluorophenyl)methyl]carbamate [V192861]
< 10 µM: all assays above

O=C(NCCC12CC(CN1)C2)O[C@@H]1[C@@H](O)CN[C@@H]1Cc1ccc(-c2cnco2)cc1 [V192847, (2R,3S,4S)-4-hydroxy-2-{[4-(1,3-oxazol-5-yl)phenyl]methyl}pyrrolidin-3-yl N-(2-{2-azabicyclo[2.1.1]hexan-1-yl}ethyl)carbamate]
< 10 µM: all assays above

CNC1(c2cccc(CNC(=O)O[C@@H]3[C@@H](O)CN[C@@H]3Cc3ccc(-c4cnco4)cc3)c2)CC1 [V192289, (2R,3S,4S)-4-hydroxy-2-{[4-(1,3-oxazol-5-yl)phenyl]methyl}pyrrolidin-3-yl N-({3-[1-(methylamino)cyclopropyl]phenyl}methyl)carbamate]
< 10 µM: all assays above

O=C(NCC[C@@H]1CC(F)CN1)O[C@@H]1[C@@H](O)CN[C@@H]1Cc1ccc(-c2cnco2)cc1 (stereo partly drawn) [V192916, (2R,3S,4S)-4-hydroxy-2-{[4-(1,3-oxazol-5-yl)phenyl]methyl}pyrrolidin-3-yl N-{2-[(2R)-4-fluoropyrrolidin-2-yl]ethyl}carbamate]
< 10 µM: all assays above

O=C(NCc1cccc(F)c1)O[C@@H]1[C@@H](O)CN[C@@H]1Cc1ccc(-c2ccns2)cc1 [V192324, (2R,3S,4S)-4-hydroxy-2-{[4-(1,2-thiazol-5-yl)phenyl]methyl}pyrrolidin-3-yl N-[(3-fluorophenyl)methyl]carbamate]
< 10 µM: all assays above
